Test results from patent publication US11000033B2, “Ketone or oxime compound, and herbicide” (NISSAN CHEMICAL CORPORATION, priority 2014, dated 2021).

Tests used:
Assay type in all cases: in vivo
Digitaria ciliaris = assay: Test Example 4: herbicidal effect by soil treatment (symbol F); conditions: 320 g/ha
Outline: (§1)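 Seeds were sown in sterilized diluvial soil, covered with about 1.5 cm of soil, and the soil surface was sprayed with a water-diluted emulsion of the compound at a predetermined rate. Plants grew in a greenhouse at 25° C. to 30° C.; effects were scored visually 3 weeks after application.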

Veronica persica = assay: Test Example 4: herbicidal effect by soil treatment (symbol R); conditions: 320 g/ha
Outline: as §1

rice = assay: Test Example 4: effect on crop by soil treatment (symbol b); conditions: 320 g/ha
Outline: (§2)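 Grown at 25° C. to 30° C. in a greenhouse, the crops came from seed sown spot-wise in sterilized diluvial soil under roughly 1.5 cm of covering soil.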

Lolium multiflorum Lam. = assay: Test Example 4: herbicidal effect by soil treatment (symbol K); conditions: 320 g/ha
Outline: as §1

Setaria viridis = assay: Test Example 4: herbicidal effect by soil treatment (symbol G); conditions: 320 g/ha
Outline: as §1

Leptochloa chinensis = assay: Test Example 3: herbicidal effect by foliage application, Wagner pot (symbol D); conditions: application herbicide amount 320 g/ha
Outline: (§3)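 Foliar spray of water-diluted emulsion formulation at a predetermined herbicide amount onto 14-day-old plants in flooded alluvial soil (water depth 0.1–0.5 cm), greenhouse 25–30 °C; rice sown alongside. Scored 3 wk post-application on set criteria.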

[1] = test system: Echinochloa crus-galli var. crus-galli; assay: Test Example 5: herbicidal effect by foliage application, plastic box (symbol H); conditions: 320 g/ha, 3 weeks after application
Outline: (§4)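 Effect is rated 3 weeks after a foliar spray of water-diluted emulsion concentrate at a predetermined herbicide amount. Plants had grown 14 days in a 25° C. to 30° C. greenhouse from seed in sterilized diluvial soil.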

[2] = test system: Echinochloa oryzacola Vasing.; assay: Test Example 2: herbicidal activity, application during weed generation in submerged conditions (symbol A); conditions: Table 23; application herbicide amount 320 g/ha; grade 0-5 by criteria of Test Example 1
Outline: (§5)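 Paddy pot test, submerged (4 cm water), alluvial soil, mixed sowing; greenhouse 25–30° C. Emulsion formulation diluted to predetermined rate, applied onto floodwater at 1–2 leaf stage. Visual herbicidal rating at 3 wk post-treatment.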

Avena fatua = assay: Test Example 4: herbicidal effect by soil treatment (symbol I); conditions: 320 g/ha
Outline: as §1

[3] = test system: Echinochloa crus-galli var. crus-galli; assay: Test Example 3: herbicidal effect by foliage application, Wagner pot (symbol H); conditions: application herbicide amount 320 g/ha
Outline: as §3

Alopecurus myosuroides [4] = assay: Test Example 4: herbicidal effect by soil treatment (symbol J); conditions: 320 g/ha
Outline: as §1

rice plant = assay: Test Example 5: effect on crop by foliage application, plastic box (symbol b); conditions: 320 g/ha, 3 weeks after application
Outline: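 Sterilized diluvial soil, plastic box (21 × 13 × 7 cm); spot sowing, ~1.5 cm soil cover; greenhouse 25–30° C.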

wheat = assay: Test Example 4: effect on crop by soil treatment (symbol e); conditions: 320 g/ha
Outline: as §2

Stellaria media [5] = assay: Test Example 5: herbicidal effect by foliage application, plastic box (symbol P); conditions: 320 g/ha, 3 weeks after application
Outline: as §4

Alopecurus myosuroides [6] = assay: Test Example 5: herbicidal effect by foliage application, plastic box (symbol J); conditions: 320 g/ha, 3 weeks after application
Outline: as §4

Stellaria media [7] = assay: Test Example 4: herbicidal effect by soil treatment (symbol P); conditions: 320 g/ha
Outline: as §1

Monochoria vaginalis = assay: Test Example 2: herbicidal activity, application during weed generation in submerged conditions (symbol C); conditions: Table 23; application herbicide amount 320 g/ha; grade 0-5 by criteria of Test Example 1
Outline: as §5

Amaranthus retroflexus = assay: Test Example 5: herbicidal effect by foliage application, plastic box (symbol N); conditions: 320 g/ha, 3 weeks after application
Outline: as §4

Chenopodium album = assay: Test Example 5: herbicidal effect by foliage application, plastic box (symbol O); conditions: 320 g/ha, 3 weeks after application
Outline: as §4

Scirpus juncoides = assay: Test Example 2: herbicidal activity, application during weed generation in submerged conditions (symbol B); conditions: Table 23; application herbicide amount 320 g/ha; grade 0-5 by criteria of Test Example 1
Outline: as §5

| Structure (SMILES) | F: Digitaria ciliaris, herbicidal effect grade (Digitaria ciliaris) | R: Veronica persica, herbicidal effect grade (Veronica persica) | b: directly sowed rice plant, effect grade on crop (rice) | K: Lolium multiflorum Lam., herbicidal effect grade (Lolium multiflorum Lam.) | G: Setaria viridis, herbicidal effect grade (Setaria viridis) | herbicidal effect on D (Leptochloa chinensis), grade 0-5 (Leptochloa chinensis) | H: Echinochloa crus-galli var. crus-galli, herbicidal effect (criteria 0-5) [1] | Herbicidal effect grade, A: Echinochloa oryzacola Vasing. [2] | I: Avena fatua, herbicidal effect grade (Avena fatua) | herbicidal effect on H (Echinochloa crus-galli var. crus-galli), grade 0-5 [3] | J: Alopecurus myosuroides, herbicidal effect grade (Alopecurus myosuroides [4]) | b: directly sowed rice plant, effect on crop (criteria 0-5) (rice plant) | e: wheat, effect grade on crop (wheat) | P: Stellaria media, herbicidal effect (criteria 0-5) (Stellaria media [5]) | J: Alopecurus myosuroides, herbicidal effect (criteria 0-5) (Alopecurus myosuroides [6]) | P: Stellaria media, herbicidal effect grade (Stellaria media [7]) | Herbicidal effect grade, C: Monochoria vaginalis (Monochoria vaginalis) | N: Amaranthus retroflexus, herbicidal effect (criteria 0-5) (Amaranthus retroflexus) | O: Chenopodium album, herbicidal effect (criteria 0-5) (Chenopodium album) | Herbicidal effect grade, B: Scirpus juncoides (Scirpus juncoides) |
| --- | --- | --- | --- | --- | --- | --- | --- | --- | --- | --- | --- | --- | --- | --- | --- | --- | --- | --- | --- | --- |
| CCCON=C(C)CC1CC(O)=C(c2c(C)cc(C)cc2C)C1=O (stereo not drawn) [1-123] | 5 (Herbicidal ratio of 90% or more (almost completely withered)) | 0 (Herbicidal ratio of 5% or lower (almost no effect)) | 5 (Herbicidal ratio of 90% or more (almost completely withered)) | 5 (Herbicidal ratio of 90% or more (almost completely withered)) | 5 (Herbicidal ratio of 90% or more (almost completely withered)) | 5 (Herbicidal ratio of 90% or more (almost completely withered)) | 5 (Herbicidal ratio of 90% or more (almost completely withered)) | 5 (Herbicidal ratio of 90% or more (almost completely withered)) | 4 (Herbicidal ratio of 70% or higher and lower than 90%) | 5 (Herbicidal ratio of 90% or more (almost completely withered)) | 5 (Herbicidal ratio of 90% or more (almost completely withered)) | 5 (Herbicidal ratio of 90% or more (almost completely withered)) | 0 (Herbicidal ratio of 5% or lower (almost no effect)) | 3 (Herbicidal ratio of 40% or higher and lower than 70%) | 5 (Herbicidal ratio of 90% or more (almost completely withered)) | 0 (Herbicidal ratio of 5% or lower (almost no effect)) | 2 (Herbicidal ratio of 20% or higher and lower than 40%) | 0 (Herbicidal ratio of 5% or lower (almost no effect)) | 0 (Herbicidal ratio of 5% or lower (almost no effect)) | 3 (Herbicidal ratio of 40% or higher and lower than 70%) |
| CC(CC1CC(O)=C(c2c(C)cc(C)cc2C)C1=O)=NOCC(N)=O (stereo not drawn) [1-124] | 0 (Herbicidal ratio of 5% or lower (almost no effect)) | 0 (Herbicidal ratio of 5% or lower (almost no effect)) | 1 (Herbicidal ratio of 5% or higher and lower than 20%) | 3 (Herbicidal ratio of 40% or higher and lower than 70%) | 3 (Herbicidal ratio of 40% or higher and lower than 70%) | 5 (Herbicidal ratio of 90% or more (almost completely withered)) | 5 (Herbicidal ratio of 90% or more (almost completely withered)) | 2 (Herbicidal ratio of 20% or higher and lower than 40%) | 0 (Herbicidal ratio of 5% or lower (almost no effect)) | 5 (Herbicidal ratio of 90% or more (almost completely withered)) | 2 (Herbicidal ratio of 20% or higher and lower than 40%) | 3 (Herbicidal ratio of 40% or higher and lower than 70%) | 0 (Herbicidal ratio of 5% or lower (almost no effect)) | 2 (Herbicidal ratio of 20% or higher and lower than 40%) | 3 (Herbicidal ratio of 40% or higher and lower than 70%) | 0 (Herbicidal ratio of 5% or lower (almost no effect)) | 0 (Herbicidal ratio of 5% or lower (almost no effect)) | 0 (Herbicidal ratio of 5% or lower (almost no effect)) | 3 (Herbicidal ratio of 40% or higher and lower than 70%) | 0 (Herbicidal ratio of 5% or lower (almost no effect)) |
| CC(CC1CC(O)=C(c2c(C)cc(C)cc2C)C1=O)=NOCC[S+](C)[O-] (stereo not drawn) [1-125] | 5 (Herbicidal ratio of 90% or more (almost completely withered)) | 0 (Herbicidal ratio of 5% or lower (almost no effect)) | 5 (Herbicidal ratio of 90% or more (almost completely withered)) | 5 (Herbicidal ratio of 90% or more (almost completely withered)) | 5 (Herbicidal ratio of 90% or more (almost completely withered)) | 5 (Herbicidal ratio of 90% or more (almost completely withered)) | 5 (Herbicidal ratio of 90% or more (almost completely withered)) | 2 (Herbicidal ratio of 20% or higher and lower than 40%) | 3 (Herbicidal ratio of 40% or higher and lower than 70%) | 5 (Herbicidal ratio of 90% or more (almost completely withered)) | 0 (Herbicidal ratio of 5% or lower (almost no effect)) | 5 (Herbicidal ratio of 90% or more (almost completely withered)) | 3 (Herbicidal ratio of 40% or higher and lower than 70%) | 2 (Herbicidal ratio of 20% or higher and lower than 40%) | 5 (Herbicidal ratio of 90% or more (almost completely withered)) | 0 (Herbicidal ratio of 5% or lower (almost no effect)) | 0 (Herbicidal ratio of 5% or lower (almost no effect)) | 0 (Herbicidal ratio of 5% or lower (almost no effect)) | 1 (Herbicidal ratio of 5% or higher and lower than 20%) | 0 (Herbicidal ratio of 5% or lower (almost no effect)) |
